Key:
Abutilon theophrasti = test: Rate of penetration measured by Fluorescence Index enhancement (PS II inhibitor Na Bentazone into leaf); assay type: in vivo; parameters: scale not given here; conditions: Na B + E + S: 0.64% w/w Na Bentazone, 0.1% emulsifier, 0.9% solvent in CIPAC D water; two 5 μl droplets on leaf, 1 h
Description: PS II inhibitors effectively block the chlorophyll photosynthetic pathways within the leaf, resulting in enhanced fluorescence from the non-adsorbed incident light. The resulting emitted light can be measured at selected time intervals, enabling the determination of the rate of uptake of the PS II inhibitor and thus penetration effect of the selected adjuvant.
The following experiments were on the broadleaf weed Abutilon theophrasti (EPPO code ABUTH) at a Biologische Bundesanstalt, Bundessortenamt und Chemische Industrie (BBCH) growth stage 13 to 14.
The penetration experiments are conducted via the deposition of two droplets (5 μl) of the herbicide/emulsifier/lactone-based solvent formulation onto the leaf surface. The droplets are allowed to stand on the leaf surface for 1 h, after which a fluorescence image of the exposed leaf surface is recorded using the PAM chlorophyll fluorescence imaging system (Imaging PAM, Heinz-Walz GmbH, Germany). The resulting “Total Fluorescence” and “Fluorescence Area” are then quantified via the analysis of the recorded fluorescence image using image analysis software. This enables the calculation of the “Fluorescence Index”:
The “Fluorescence Index” is a therefore a direct measurement of the penetration of the active ingredient into the plant leaf and can thus be used to measure enhanced penetration via the use of selected adjuvants. Identical experiments are conducted on 7 further leaves using the same formulation to account for biological variability and experimental error.

[1] = solvent in water, visual assessment of undissolved solvent
Description: Herein, various amounts of solvent and water were mixed with vigorous shaking in a glass-stoppered graduated cylinder or separating funnel, followed by standing for at least 30 min to enable separation. […] This method can be repeated with various amounts of solvent and water to enable the determination of the water-solubility of the solvent.

Soya plants = test: Phytotoxicity determination on Soya; assay type: in vivo; conditions: 200 L/ha of 1% w/w emulsion (EC 90% w/w solvent, 10% w/w emulsifier); after 14 days; visual scale 0% to 100%
Description: Soya plants grown under standard greenhouse conditions in the growth stage 13 were treated with aqueous emulsions in a spray cabin. The resulting plant spray dosage represented an application rate of 200 L/ha of 1% w/w emulsion, corresponding to the application of 2 L/ha of the emulsifiable concentrate. […] The experimental period lasted 14 days, during which time the Soya plants were given optimum watering, nutrients, and light.
An assessment of 1 to 10% phytotoxicity is the limit of acceptable plant damage by farmers.

Compound | Fluorescence Index (Abutilon theophrasti) | Water solubility [1] [% w/w] | phytotoxicity (Soya plants) [%]
CCCCCCCC1CCC(=O)O1 (centres unmarked) [Gamma-undecalactone] | 11.67 |  | 
CCCCCC1CCCC(=O)O1 (centres unmarked) [Delta-decalactone] | 9.66 | 0.4 | 
CCCC(C)C1OC(=O)CC1C (stereo not drawn) [Beta, delta-dimethyl- gamma-octalactone, Beta,delta-dimethyl-gamma-octalactone] |  | ≤0.2 | 
CCCCCC1CCC(=O)O1 (centres unmarked) [Gamma-nonalactone] | 16.44 | 0.2 | 0
CCCCC1CCC(=O)O1 (centres unmarked) [Gamma-octalactone] | 8.80 | 0.8 | 
CCCCC1OC(=O)CC1C (stereo not drawn) [Beta-methyl-gamma-octalactone] |  | ≤0.2 | 
CCC1CCC(=O)O1 (centres unmarked) [Gamma-hexalactone] | 6.11 | 8 | 
CCCCCCC1CCC(=O)O1 (centres unmarked) [Gamma-decalactone] | 14.13 | 0.1 | 
CCCCCCCCC1CCCC(=O)O1 (centres unmarked) [Delta-tridecalactone] |  | <0.1 | 
CCCCCCCC1CCCC(=O)O1 (centres unmarked) [Delta-dodecalactone] | 15.21 | 0.07 | 
CCCCC1CCCC(=O)O1 (centres unmarked) [Delta-nonalactone] |  | 1.2 | 
CCCC(C)C1CCC(=O)O1 (centres unmarked) [Delta-methyl-gamma- octalactone, Delta-methyl-gamma-octalactone] |  | ≤0.2 | 
CCCCCCCCC1CCC(=O)O1 (centres unmarked) [Gamma-dodecalactone] |  | <0.02 | 
CCCCCCCCCC(=O)N(C)C [Dimethyl decanamide, reference compound] |  |  | 50
CC1CCC(=O)O1 (centres unmarked) [Gamma-valerolactone] | 4.85 | 100 | 

Reference: patent publication US20260101887A1, “AN EMULSIFIABLE CONCENTRATE HAVING A LACTONE-BASED SOLVENT SYSTEM” (priority 2022, published 2026)
